Experimental data taken from PubChem BioAssay AID248 (DTP/NCI, 2004).
Several values for one entry are separate records, joined by “and”; a condition that tells them apart may be missing. Equal entries are not always repeated. Inconclusive results and toxic doses are left out.

System: L1210 leukemia ip in BDF1 mice, survival T/C
Experiment: NCI In Vivo Anticancer Drug Screen. Data for tumor model L1210 Leukemia (intraperitoneal) in B6D2F1 (BDF1) mice
Conditions: endpoint: mean survival time, higher = longer survival
Summary of the method: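 In this screen, tumor-bearing mice given compound are compared to those given vehicle, and their survival values are reported as a treated-to-control quotient.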

[1] = dose: 100.0 mg/kg/injection, schedule: Q01DX009 (ip), vehicle: saline with Tween-80
[2] = dose: 100.0 mg/kg/injection, schedule: Q01DX001 (ip), vehicle: carboxymethylcellulose (CMC)
[3] = dose: 200.0 mg/kg/injection, schedule: Q01DX001 (ip), vehicle: carboxymethylcellulose (CMC)
[4] = dose: 400.0 mg/kg/injection, schedule: Q01DX001 (ip), vehicle: carboxymethylcellulose (CMC)
[5] = dose: 100.0 mg/kg/injection, schedule: Q04DX003 (ip), vehicle: Klucel (hydroxypropylcellulose) (HPC)
[6] = dose: 200.0 mg/kg/injection, schedule: Q04DX003 (ip), vehicle: Klucel (hydroxypropylcellulose) (HPC)
[7] = dose: 400.0 mg/kg/injection, schedule: Q04DX003 (ip), vehicle: Klucel (hydroxypropylcellulose) (HPC)
[8] = dose: 100.0 mg/kg/injection, schedule: Q01DX009 (ip), vehicle: Klucel (hydroxypropylcellulose) (HPC)
[9] = dose: 200.0 mg/kg/injection, schedule: Q01DX009 (ip), vehicle: Klucel (hydroxypropylcellulose) (HPC)
[10] = dose: 400.0 mg/kg/injection, schedule: Q01DX009 (ip), vehicle: Klucel (hydroxypropylcellulose) (HPC)
[11] = dose: 100.0 mg/kg/injection, schedule: Q01DX001 (ip), vehicle: saline
[12] = dose: 100.0 mg/kg/injection, schedule: Q04DX003 (ip), vehicle: saline
[13] = dose: 200.0 mg/kg/injection, schedule: Q01DX001 (ip), vehicle: saline
[14] = dose: 200.0 mg/kg/injection, schedule: Q04DX003 (ip), vehicle: saline
[15] = dose: 400.0 mg/kg/injection, schedule: Q01DX001 (ip), vehicle: saline
[16] = dose: 100.0 mg/kg/injection, schedule: Q04DX002 (ip), vehicle: Klucel (hydroxypropylcellulose) (HPC)
[17] = dose: 200.0 mg/kg/injection, schedule: Q04DX002 (ip), vehicle: Klucel (hydroxypropylcellulose) (HPC)
[18] = dose: 400.0 mg/kg/injection, schedule: Q04DX002 (ip), vehicle: Klucel (hydroxypropylcellulose) (HPC)

With `Cc1ccc2ccccc2[n+]1[O-]` the T/C (dose: 25.0 mg/kg/injection, schedule: Q01DX009 (ip), vehicle: saline with Tween-80) was 100 % of control, the T/C (dose: 25.0 mg/kg/injection, schedule: Q04DX002 (ip), vehicle: saline with Tween-80) was 93 % of control and the T/C (dose: 50.0 mg/kg/injection, schedule: Q01DX009 (ip), vehicle: saline with Tween-80) was 96 % of control. For the same compound, the T/C (dose: 50.0 mg/kg/injection, schedule: Q04DX002 (ip), vehicle: saline with Tween-80) was 104 % of control, the T/C (dose: 75.0 mg/kg/injection, schedule: Q01DX001 (ip), vehicle: carboxymethylcellulose (CMC)) was 94 % of control and the T/C [1] was 96 % of control. The T/C (dose: 100.0 mg/kg/injection, schedule: Q04DX002 (ip), vehicle: saline with Tween-80) was 96 % of control and the T/C (dose: 150.0 mg/kg/injection, schedule: Q01DX001 (ip), vehicle: carboxymethylcellulose (CMC)) was 96 % of control.
`ClC(=Nc1ccccc1)c1cc(Cl)ccn1` was tested, and the T/C [2] was 92 % of control, the T/C [3] was 94 % of control and the T/C [4] was 100 % of control.
`Cc1cccc2cc3c(ccc4ccccc43)c[n+]12` was tested, and the T/C (dose: 2.0 mg/kg/injection, schedule: Q01DX015 (ip), vehicle: carboxymethylcellulose (CMC)) was 101 % of control, the T/C (dose: 4.0 mg/kg/injection, schedule: Q01DX015 (ip), vehicle: carboxymethylcellulose (CMC)) was 108 % of control and the T/C (dose: 5.0 mg/kg/injection, schedule: Q04DX003 (ip), vehicle: Klucel (hydroxypropylcellulose) (HPC)) was 106 % of control. The T/C (dose: 6.25 mg/kg/injection, schedule: Q01DX009 (ip), vehicle: saline with Tween-80) was 98 % of control, the T/C (dose: 6.25 mg/kg/injection, schedule: Q04DX003 (ip), vehicle: saline) was 93 % of control and the T/C (dose: 8.0 mg/kg/injection, schedule: Q01DX015 (ip), vehicle: carboxymethylcellulose (CMC)) was 105 % of control. The T/C (dose: 10.0 mg/kg/injection, schedule: Q04DX003 (ip), vehicle: Klucel (hydroxypropylcellulose) (HPC)) was 103 % of control, the T/C (dose: 12.5 mg/kg/injection, schedule: Q01DX001 (ip), vehicle: saline) was 98 % of control and the T/C (dose: 12.5 mg/kg/injection, schedule: Q01DX009 (ip), vehicle: saline with Tween-80) was 115 % of control. For the same compound, the T/C (dose: 12.5 mg/kg/injection, schedule: Q04DX003 (ip), vehicle: saline) was 97 % of control, the T/C (dose: 20.0 mg/kg/injection, schedule: Q04DX003 (ip), vehicle: Klucel (hydroxypropylcellulose) (HPC)) was 100 % of control and the T/C (dose: 25.0 mg/kg/injection, schedule: Q01DX001 (ip), vehicle: saline) was 97 % of control. The T/C (dose: 25.0 mg/kg/injection, schedule: Q04DX003 (ip), vehicle: saline) was 97 % of control, the T/C (dose: 40.0 mg/kg/injection, schedule: Q04DX003 (ip), vehicle: Klucel (hydroxypropylcellulose) (HPC)) was 97 % of control and the T/C (dose: 80.0 mg/kg/injection, schedule: Q04DX003 (ip), vehicle: Klucel (hydroxypropylcellulose) (HPC)) was 100 % of control.
`O=C(O)COc1ccc(Cl)cc1CCl` was tested, and the T/C [5] was 100 % of control, the T/C [6] was 98 % of control and the T/C [7] was 102 % of control.
For `CCCCC1C/C=C/C=C/C=C/C=C/C(OC2OC(C)C(O)C(N)C2O)CC2OC(O)(CC(O)CC3OC3/C=C/C(=O)O1)CC(O)C2C(=O)O` (configuration not stated), the T/C [5] was 96 % of control, the T/C [6] was 98 % of control and the T/C [7] was 107 % of control.
`CC(C)CCCc1c[nH]c(=O)[nH]c1=O` was tested, and the T/C [8] was 105 % of control, the T/C (dose: 100.0 mg/kg/injection, schedule: Q04DX003 (ip), vehicle: other) was 103 % of control and the T/C [9] was 97 % of control. For the same compound, the T/C (dose: 200.0 mg/kg/injection, schedule: Q04DX003 (ip), vehicle: other) was 101 % of control, the T/C [10] was 97 % of control and the T/C (dose: 400.0 mg/kg/injection, schedule: Q04DX003 (ip), vehicle: other) was 117 % of control.
In the case of `CCCC1=CN(Cc2ccccc2)c2ccccc2C1`, the T/C [11] is reported as 96 % of control, the T/C [12] is reported as 97 % of control and the T/C [13] is reported as 96 % of control. The T/C [14] was 97 % of control, the T/C [15] was 97 % of control and the T/C (dose: 400.0 mg/kg/injection, schedule: Q04DX003 (ip), vehicle: saline) was 93 % of control.
`CC(C)(C)OC(=O)N1Cc2cc3ccccc3nc2C1` was tested, and the T/C (dose: 50.0 mg/kg/injection, schedule: Q01DX009 (ip), vehicle: saline) was 98 % of control, the T/C (dose: 100.0 mg/kg/injection, schedule: Q01DX009 (ip), vehicle: saline) was 94 % of control and the T/C [12] was 96 % of control. The T/C [14] was 100 % of control.
`C/C(=C\CC1(C)C(=O)CCC2(C)C1CCCC21OCCO1)Sc1ccc(Cl)cc1` (configuration not stated) was tested, and the T/C [16] was 89 % of control, the T/C [17] was 95 % of control and the T/C [18] was 110 % of control.
`CC(C)(C)C1=CC(=O)C(N=[N+]=[N-])=CC1=O` was tested, and the T/C (dose: 100.0 mg/kg/injection, schedule: Q04DX002 (ip), vehicle: saline) was 94 % of control and the T/C (dose: 200.0 mg/kg/injection, schedule: Q04DX002 (ip), vehicle: saline) was 115 % of control.
`COc1ccc(Nc2cc(N)nc(N)n2)cc1` was tested, and the T/C (dose: 25.0 mg/kg/injection, schedule: Q01DX Z (ip), vehicle: methylcellulose (MC)) was 93 % of control and the T/C (dose: 50.0 mg/kg/injection, schedule: Q01DX Z (ip), vehicle: methylcellulose (MC)) was 87 % of control.
For `Nc1ccc(S(=O)(=O)Nc2ccc(S(=O)(=O)O)c3ccc(S(=O)(=O)O)cc23)cc1`, the T/C (dose: 75.0 mg/kg/injection, schedule: Q04DX003 (ip), vehicle: Klucel (hydroxypropylcellulose) (HPC)) was 95 % of control, the T/C (dose: 150.0 mg/kg/injection, schedule: Q04DX003 (ip), vehicle: Klucel (hydroxypropylcellulose) (HPC)) was 93 % of control and the T/C (dose: 300.0 mg/kg/injection, schedule: Q04DX003 (ip), vehicle: Klucel (hydroxypropylcellulose) (HPC)) was 98 % of control.
In the case of `NC(=O)C1(Nc2ccc(-c3ccc(I)cc3)cc2)CCCC1`, the T/C (dose: 50.0 mg/kg/injection, schedule: Q01DX001 (ip), vehicle: carboxymethylcellulose (CMC)) is reported as 86 % of control, the T/C [2] is reported as 86 % of control and the T/C [3] is reported as 86 % of control. For the same compound, the T/C [4] was 90 % of control.
For `O=[N+]([O-])c1ccccc1S(=O)(=O)N1CCN(S(=O)(=O)c2ccccc2[N+](=O)[O-])C1`, the T/C [8] was 90 % of control, the T/C [5] was 96 % of control and the T/C [9] was 93 % of control. For the same compound, the T/C [6] was 96 % of control, the T/C [10] was 93 % of control and the T/C [7] was 100 % of control.
With `CS(=O)CC(O)(c1ccccc1)c1ccccc1` (configuration not stated) the T/C (dose: 50.0 mg/kg/injection, schedule: Q01DX001 (ip), vehicle: saline) was 102 % of control, the T/C [11] was 101 % of control and the T/C [13] was 98 % of control. For the same compound, the T/C [15] was 97 % of control.
In the case of `CCc1cc2oc(C)c(C)c2c(N=Nc2ccc([N+](=O)[O-])cc2)c1O`, the T/C [16] is reported as 102 % of control, the T/C [17] is reported as 96 % of control and the T/C [18] is reported as 99 % of control.
`COc1ccc([N+](=O)[O-])cc1C(F)(F)F` was tested, and the T/C [1] was 96 % of control, the T/C (dose: 200.0 mg/kg/injection, schedule: Q01DX009 (ip), vehicle: saline with Tween-80) was 97 % of control and the T/C (dose: 400.0 mg/kg/injection, schedule: Q01DX009 (ip), vehicle: saline with Tween-80) was 93 % of control.
For `Cc1c(C)c(NC(=O)N(CCCl)N=O)c(C)c(C)c1NC(=O)N(CCCl)N=O`, the T/C (dose: 15.5 mg/kg/injection, schedule: Q01DX001 (ip), vehicle: other) was 120 % of control, the T/C (dose: 62.0 mg/kg/injection, schedule: Q01DX001 (ip), vehicle: other) was 152 % of control and the T/C (dose: 125.0 mg/kg/injection, schedule: Q01DX001 (ip), vehicle: other) was 159 % of control and 160 % of control and 207 % of control. For the same compound, the T/C (dose: 250.0 mg/kg/injection, schedule: Q01DX001 (ip), vehicle: other) was 203 % of control and 211 % of control and 252 % of control, the T/C (dose: 375.0 mg/kg/injection, schedule: Q01DX001 (ip), vehicle: other) was 237 % of control and the T/C (dose: 500.0 mg/kg/injection, schedule: Q01DX001 (ip), vehicle: other) was 223 % of control and 283 % of control. For the same compound, the T/C (dose: 501.0 mg/kg/injection, schedule: Q01DX001 (ip), vehicle: other) was 115 % of control, the T/C (dose: 750.0 mg/kg/injection, schedule: Q01DX001 (ip), vehicle: other) was 151 % of control and 238 % of control and the T/C (dose: 1000.0 mg/kg/injection, schedule: Q01DX001 (ip), vehicle: other) was 190 % of control.
